The results in this text go back to patent US9492554B2, “Methods and compositions related to viral inhibition” (Clemson University Research Foundation (CURF), priority 2009, dated 2016).

For one data set, the system named is TAR RNA. The data set can be described thus: UV melting of TAR RNA in presence of ligands (Tm, ΔTm). In kind it is binding, HIV-1. The following applies: for ΔTm: Melting point stabilization of HIV-TAR RNA by Neo Neo dimers, Table 11.
A further data set concerns the target HIV-1 TAR RNA. The data set can be described thus: HIV-1 TAR RNA competition FRET binding assay (Tat peptide probe). Particulars: 100 nM TAR RNA, 100 nM Tat peptide, 25° C., 60 min. On the procedure:
Before used, HIV-1 TAR RNA (5′-GGC AGA UCUGAG CCU GGG AGC UCU CUG CC-3′, Thermo Scientific) in 10 μM batch in sterile water was heated to 95° C. for 4.5 min, and then cooled rapidly in ice bath for 5 min. This snap-cooling causes the RNA to adopt the kinetically favored hairpin rather than thermodynamically favored duplexes.
The relative affinity of each polyamine for HIV-1 TAR RNA was determined using Fluorescence Resonance Energy Transfer (FRET)-based competitive binding assay with a fluorescein-labeled HIV-1 Tat peptide as described in the literature. The fluorescence experiments were performed with a Spectra Max Fluorimeter (Molecular Devices) at 25° C., with excitation and emission wavelengths of 495 and 570 nm, respectively. All samples were prepared in 96 well plates in 1×TK buffer (50 mM Tris, 20 mM KCl, pH=7.4) with 0.1% Trixton-100 (Sigma).
To a solution of 100 nM HIV-1 TAR RNA and 100 nM fluorescein-labeled HIV-1 Tat peptide, appropriate concentrations (0 nM to 100 μM) of the antagonists were added at 25° C.; total volume of the incubation solution was 80 μL. After 60 min, fluorescence changes of the sample solution were determined by the Spectra Max Fluorimeter Detector.

The subject of data set [1] is HIVNL4-3 in MT-2 cells. The data set can be described thus: HIV antigen synthesis in treated cells, immunofluorescence assay (IFA). The format is cell-based. Particulars: for percentage of cells positive for HIV antigens, Day 2: MT-2 cells, microM: DPA119 24, DPA52 25, DPA53 9, DPA54 17, DPA55 4, DPA56 8, DPA121 25, virus control 15%; for percentage of cells positive for HIV antigens, Day 4 / percentage of cells positive for HIV antigens, Day 6: same concentrations, virus control 100%. On the procedure:
(§1) Anti-HIV activities can be routinely checked by measuring the percentage of cells positive for HIV antigens using immunofluorescence assay (IFA) and for the release of pelletable reverse transcriptase (RT) into the supernatant. For these assays, 500,000 MT-2 cells in 1 ml of media were added to the wells of a 24 well tissue culture plate. Next, 0.5 ml of 4× concentrated compound was added to triplicate wells of the plate. The cells and compounds were incubated for 1 hr at 37 C. Finally, 0.5 ml of HIVNL4-3, produced in H9 cells (a CD4+ lymphoblastoid cell line), 100,000 cpm of RT activity per well, was added to each well. Virus control wells contained no compounds. This inoculum is at a multiplicity of infection less than 1. On days 2, 4, and 6, 0.75 mls of supernatants were removed and placed into individual microfuge tubes for RT assay. Next, cells were resuspended in the media and 0.5 mls of the total remaining volume was removed for IFA. Cells were combined from their triplicate infections, pelleted, and the enriched cells were air-dried onto glass slides. The dried cells were fixed in acetonemethanol (50:50). After fixing, cells were stained with HIV immunoglobulin, washed in PBS, and counter-stained with FITC-conjugated goat and human IgG. Slides were washed in PBS and the percentage of HIV-positive cells was determined by epifluorescence (Robinson et al. J Acquire Immune Defic Syndr 2:33-42, 1989).

Data set [2] has as its system HIVNL4-3 in MT-2 cells. The data set can be described thus: Release of reverse transcriptase into the culture supernatant. The format is cell-based, HIV. The following applies: for Release of reverse transcriptase into the culture supernatant, Day 2: mean of triplicate infections (SD), microM: DPA119 24, DPA52 25, DPA53 9, DPA54 17, DPA55 4, DPA56 8, DPA121 25, virus control 46,029; for Release of reverse transcriptase into the culture supernatant, Day 4 / Release of reverse transcriptase into the culture supernatant, Day 6: mean of triplicate infections; for Release of reverse transcriptase into the culture supernatant, Day 4: virus control 928,112; for Release of reverse transcriptase into the culture supernatant, Day 6: virus control 1,078,741.
Text: as §1, with “The disclosed conjugates also reduce the amount of reverse transcriptase (RT) released into the cell culture supernatant upon in vitro cell culture experiments (Table 14 below). […] It is possible that even though the cells are positive for HIV, they are making much fewer unspliced transcripts, and thus the virion release into the media remains suppressed. […] Anti-HIV” for “Anti-HIV”, “On days 2, 4, and 6, 0.75 mls of supernatants were removed and placed into individual microfuge tubes for RT assay.” left out, “[…] The supernatants from each well were precipitated at 4 C overnight in a solution including 30% polyethylene glycol. After precipitation, precipitate was lysed in a solution containing Triton X100, Tris buffer, and DTT. RT activity of each aliquot was determined as incorporation of 3H-dTTP into a poly rA-oligo dT template. After a one hour assay at 37 C, the incorporated dTTP was precipitated onto a ZetaProbe (BioRad) membrane. Slots were excised and placed into liquid scintillation cocktail. After overnight incubation, counts per minute for each sample was determined on a beta counter. Results were calculated as cpm/ml of original culture supernatant (Robinson et al.” for “J Acquire Immune Defic Syndr 2:33-42, 1989).”

The term ΔTm denotes the shift of the melting midpoint relative to a reference. Usually IC50 stands for the concentration that gives 50% inhibition. A lower IC50 goes with greater potency in that assay. For `NCC1O[C@H](OC2C(N)C[C@@H](N)C(O)[C@H]2O[C@@H]2O[C@H](Cn3cc(COCCCCCCCCCCCCOCc4cn(C[C@H]5O[C@@H](O[C@H]6C(O[C@H]7OC(CN)C(O)[C@H](O)C7N)C(N)C[C@@H](N)C6O)[C@@H](O)C5O[C@H]5O[C@@H](CN)C(O)C(O)C5N)nn4)nn3)C(O[C@H]3O[C@@H](CN)C(O)C(O)C3N)[C@@H]2O)C(N)[C@@H](O)C1O` (stereo partly shown) [DPA 60], in the data set on TAR RNA, the ΔTm turned out to be 3.24 °C. Moreover, the concentration for half-maximal inhibition (IC50) at HIV-1 TAR RNA (Table 17) was found to be 0.067 ± 0.009 µM.

As to `NCC1O[C@H](OC2C(N)C[C@@H](N)C(O)[C@H]2O[C@@H]2O[C@H](Cn3cc(CCCc4cn(C[C@H]5O[C@@H](O[C@H]6C(O[C@H]7OC(CN)C(O)[C@H](O)C7N)C(N)C[C@@H](N)C6O)[C@@H](O)C5O[C@H]5O[C@@H](CN)C(O)C(O)C5N)nn4)nn3)C(O[C@H]3O[C@@H](CN)C(O)C(O)C3N)[C@@H]2O)C(N)[C@@H](O)C1O` (stereo partly shown) [DPA 52], in the data set on HIVNL4-3 in MT-2 cells [1], the “percentage of cells positive for HIV antigens, Day 2” value (from here on “percentage of cells positive … Day 2”) was 15%; the “percentage of cells positive for HIV antigens, Day 4” value (“percentage of cells positive … Day 4” below) was 100%; the “percentage of cells positive for HIV antigens, Day 6” value (shortened to “percentage of cells positive … Day 6”) stood at 100%. Moreover, in the data set on HIVNL4-3 in MT-2 cells [2], the “Release of reverse transcriptase into the culture supernatant, Day 2” value (“Release … Day 2” for short) is recorded as 21,485 (4,574) cpm/ml; the “Release of reverse transcriptase into the culture supernatant, Day 4” value (“Release … Day 4” below) is recorded as 347,845 cpm/ml; the “Release of reverse transcriptase into the culture supernatant, Day 6” value (shortened to “Release … Day 6”) is given as 268,357 cpm/ml. For the same compound, the “5% Toxicity microM” value with cells was more than 138 µM.

Take `NCC1O[C@H](OC2C(N)C[C@@H](N)C(O)[C@H]2O[C@@H]2O[C@H](Cn3cc(CCCCc4cn(C[C@H]5O[C@@H](O[C@H]6C(O[C@H]7OC(CN)C(O)[C@H](O)C7N)C(N)C[C@@H](N)C6O)[C@@H](O)C5O[C@H]5O[C@@H](CN)C(O)C(O)C5N)nn4)nn3)C(O[C@H]3O[C@@H](CN)C(O)C(O)C3N)[C@@H]2O)C(N)[C@@H](O)C1O` (stereo partly shown) [DPA 54]: in the data set on HIVNL4-3 in MT-2 cells [1], the “percentage of cells positive … Day 2” value is 3-5%; the “percentage of cells positive … Day 4” value is given as 80%; the “percentage of cells positive … Day 6” value was found to be 100%. In the data set with HIVNL4-3 in MT-2 cells [2], the “Release … Day 2” value was 14,805 (1,309) cpm/ml; the “Release … Day 4” value is reported as 165,301 cpm/ml; the “Release … Day 6” value was 427,475 cpm/ml. Further, the “5% Toxicity microM” value in the data set with cells was 69 µM.

As for `NC[C@@H]1O[C@H](O[C@H]2[C@@H](O)[C@H](O[C@@H]3[C@@H](O)[C@H](N)C[C@H](N)[C@H]3O[C@H]3O[C@H](CO)[C@@H](O)[C@H](O)[C@H]3N)O[C@@H]2CO)[C@H](N)[C@@H](O)[C@@H]1O` [DPA 502, paromomycin, reference compound], on HIV-1 TAR RNA (Table 18), the IC50 was found to be 11.4 ± 3.3 µM.

In the case of `CN[C@@H]1C[C@H](N)[C@@H](O)[C@H](OC2O[C@H](CO)[C@H](O)[C@@H]3OC4(O[C@H](C(N)CO)[C@H](O)[C@H](O)[C@H]4O)O[C@@H]23)[C@H]1O` (stereo partly shown) [DPA 504, hygromycin, reference compound], the IC50 on HIV-1 TAR RNA (Table 18) is more than 500 µM.

In turn, `NC[C@H]1O[C@H](O[C@H]2[C@H](O)[C@@H](O[C@H]3O[C@H](CO)[C@@H](O)[C@H](N)[C@H]3O)[C@H](N)C[C@@H]2N)[C@H](O)[C@@H](O)[C@@H]1O` [DPA 503, kanamycin, reference compound] yielded an IC50 on HIV-1 TAR RNA (Table 18) of 95.4 ± 20.4 µM.

In the case of `NCC1O[C@H](OC2C(N)C[C@@H](N)C(O)[C@H]2O[C@@H]2O[C@H](Cn3cc(CCCCCCc4cn(C[C@H]5O[C@@H](O[C@H]6C(O[C@H]7OC(CN)C(O)[C@H](O)C7N)C(N)C[C@@H](N)C6O)[C@@H](O)C5O[C@H]5O[C@@H](CN)C(O)C(O)C5N)nn4)nn3)C(O[C@H]3O[C@@H](CN)C(O)C(O)C3N)[C@@H]2O)C(N)[C@@H](O)C1O` (stereo partly shown) [DPA 56], in the data set with HIVNL4-3 in MT-2 cells [1], the “percentage of cells positive … Day 2” value is 5-7%; the “percentage of cells positive … Day 4” value worked out at 40%; the “percentage of cells positive … Day 6” value worked out at 100%. In the data set with HIVNL4-3 in MT-2 cells [2], the “Release … Day 2” value was 15,989 (2,523) cpm/ml; the “Release … Day 4” value is on record as 105,704 cpm/ml; the “Release … Day 6” value is given as 412,475 cpm/ml. Further, the “5% Toxicity microM” value in the data set on cells was found to be 34 µM.

Turning to `CN1CCN(c2ccc3nc(-c4ccc(OCc5cn(CCCCCCn6cc(CCCCc7cn(C[C@H]8OC(OC9C(O)[C@H](N)CC(N)[C@H]9O[C@H]9OC(CN)[C@@H](O)C(O)C9N)C(O)C8O[C@H]8OC(CN)[C@@H](O)C(O)C8N)nn7)nn6)nn5)cc4)[nH]c3c2)CC1` (stereo partly shown) [DPA115], the “ΔTm (° C.)” value in the data set with TAR RNA (TAR RNA with ligand vs control, Table 10) was determined as 4.1 °C. Also, the “Tm (° C.)” value in the data set on TAR RNA (TAR RNA with ligand, control without ligand 69.3) came out at 73.4 °C. Also, the half-inhibitory concentration (IC50) at HIV-1 TAR RNA (Table 17) is 99.4 ± 21 µM.

Consider “ribostamycin [DPA 508, reference compound]”, for which, on HIV-1 TAR RNA (Table 18), the IC50 was found to be 146 ± 38 µM.

In the case of `NCC1O[C@H](OC2C(N)C[C@@H](N)C(O)[C@H]2O[C@@H]2O[C@H](Cn3cc(-c4ccc(-c5cn(C[C@H]6O[C@@H](O[C@H]7C(O[C@H]8OC(CN)C(O)[C@H](O)C8N)C(N)C[C@@H](N)C7O)[C@@H](O)C6O[C@H]6O[C@@H](CN)C(O)C(O)C6N)nn5)cc4)nn3)C(O[C@H]3O[C@@H](CN)C(O)C(O)C3N)[C@@H]2O)C(N)[C@@H](O)C1O` (stereo partly shown) [DPA 53], in the data set with HIVNL4-3 in MT-2 cells [1], the “percentage of cells positive … Day 2” value amounted to 2%; the “percentage of cells positive … Day 4” value is 40%; the “percentage of cells positive … Day 6” value worked out at 100%. Further, in the data set with HIVNL4-3 in MT-2 cells [2], the “Release … Day 2” value is given as 8,880 (1,373) cpm/ml; the “Release … Day 4” value is given as 45,539 cpm/ml; the “Release … Day 6” value is on record as 221,445 cpm/ml. Moreover, the “5% Toxicity microM” value in the data set on cells came to 17 µM.

In turn, “lividomycin [DPA 507, reference compound]” came in with an IC50 on HIV-1 TAR RNA (Table 18) of 92.5 ± 21.9 µM.

Consider `NCC1O[C@H](OC2C(N)C[C@@H](N)C(O)[C@H]2O[C@@H]2O[C@H](Cn3cc(COCCCCCCCCOCc4cn(C[C@H]5O[C@@H](O[C@H]6C(O[C@H]7OC(CN)C(O)[C@H](O)C7N)C(N)C[C@@H](N)C6O)[C@@H](O)C5O[C@H]5O[C@@H](CN)C(O)C(O)C5N)nn4)nn3)C(O[C@H]3O[C@@H](CN)C(O)C(O)C3N)[C@@H]2O)C(N)[C@@H](O)C1O` (stereo partly shown) [DPA 58], for which, in the data set on TAR RNA, the shift in melting temperature (ΔTm) was determined as 5.4 °C. This compound also yielded an IC50 on HIV-1 TAR RNA (Table 17) of 0.061 ± 0.013 µM.
